Drawing on ChEMBL document CHEMBL4251582 (Eur J Med Chem, 2018), this text covers IC50 and Ratio IC50 for eight molecules.

Molecules are shown by their SMILES.

Assay [1] deals with MCF7. As to the kind of experiment: Cytotoxicity against human MCF7 cells after 72 hrs by LDH assay. It is filed as functional, cell-based. The conditions noted are these: MCF7, 72 h.
Assay [2] deals with MCF7. As to the kind of experiment: Cytostatic activity against human MCF7 cells. Type of assay: functional, cell-based.
Assay [3] concerns the target T1, Prostaglandin G/H synthase 2 (Ovis aries, UniProt P79208).
T1 sequence (P79208 whole entry): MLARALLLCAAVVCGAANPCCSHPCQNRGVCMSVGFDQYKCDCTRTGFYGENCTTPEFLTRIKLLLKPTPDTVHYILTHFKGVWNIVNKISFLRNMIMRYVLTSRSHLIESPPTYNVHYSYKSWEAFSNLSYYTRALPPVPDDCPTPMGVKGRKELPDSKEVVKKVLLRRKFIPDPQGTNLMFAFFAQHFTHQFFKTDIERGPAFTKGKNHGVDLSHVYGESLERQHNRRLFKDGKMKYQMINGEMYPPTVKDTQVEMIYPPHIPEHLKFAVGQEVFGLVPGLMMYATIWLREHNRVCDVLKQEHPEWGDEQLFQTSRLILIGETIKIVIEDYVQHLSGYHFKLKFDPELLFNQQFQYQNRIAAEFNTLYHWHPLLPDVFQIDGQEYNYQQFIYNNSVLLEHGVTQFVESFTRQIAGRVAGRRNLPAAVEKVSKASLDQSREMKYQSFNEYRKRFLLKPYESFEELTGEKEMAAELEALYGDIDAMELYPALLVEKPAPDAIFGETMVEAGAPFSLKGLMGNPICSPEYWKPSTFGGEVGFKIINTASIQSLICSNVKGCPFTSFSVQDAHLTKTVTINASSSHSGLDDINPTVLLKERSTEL
As to the kind of experiment: Inhibition of ovine COX2 using arachidonic acid as substrate assessed as reduction in PGF2alpha production preincubated for 5 mins followed by substrate addition measured after 2 mins by enzyme immunoassay.

The species entered for the next assay is Ovis aries. Nature of the assay: Selectivity index, ratio of IC50 for ovine COX1 to IC50 for ovine COX2.
Assay [4] addresses T2, Estrogen receptor (Homo sapiens, UniProt P03372).
T2 sequence (P03372 whole entry): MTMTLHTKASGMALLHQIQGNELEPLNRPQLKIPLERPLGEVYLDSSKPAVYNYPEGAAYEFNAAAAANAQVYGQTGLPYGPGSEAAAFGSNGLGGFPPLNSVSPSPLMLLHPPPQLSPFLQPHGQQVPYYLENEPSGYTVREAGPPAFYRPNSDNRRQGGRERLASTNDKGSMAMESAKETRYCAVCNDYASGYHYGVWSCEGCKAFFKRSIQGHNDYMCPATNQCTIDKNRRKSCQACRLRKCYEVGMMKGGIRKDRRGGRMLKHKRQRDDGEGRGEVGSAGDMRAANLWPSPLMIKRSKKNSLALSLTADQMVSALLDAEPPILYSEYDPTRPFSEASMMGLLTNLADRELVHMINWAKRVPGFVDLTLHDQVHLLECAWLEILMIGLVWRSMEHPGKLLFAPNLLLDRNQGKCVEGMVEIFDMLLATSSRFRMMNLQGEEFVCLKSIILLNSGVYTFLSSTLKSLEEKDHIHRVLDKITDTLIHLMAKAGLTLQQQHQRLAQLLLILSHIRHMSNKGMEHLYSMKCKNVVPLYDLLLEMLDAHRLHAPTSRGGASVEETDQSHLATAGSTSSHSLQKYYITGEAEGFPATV
As to the kind of experiment: Inhibition of estrogen receptor (unknown origin).

The target in assay [5] is T2, Estrogen receptor. As to the kind of experiment: Binding affinity to estrogen receptor (unknown origin).
For assay [6], the species on record is Homo sapiens. As to the kind of experiment: Selectivity index, ratio of IC50 for of ERalpha receptor (unknown origin) to IC50 for ERbeta receptor (unknown origin).
The test system of assay [7] is MCF7. As to the kind of experiment: Antiproliferative activity against human MCF7 cells. Type of assay: functional, cell-based.
In assay [8] the target is T3, Estrogen receptor (Homo sapiens) (UniProt P03372).
T3 sequence (whole entry): T2 sequence (P03372 whole entry)
As to the kind of experiment: Potency index, ratio of tamoxifen IC50 to compound IC50 for binding affinity to ERalpha receptor (unknown origin).

Assay [9] is filed under the species Homo sapiens. As to the kind of experiment: Ratio of selectivity index for test compound to selectivity index for compound for ERalpha (unknown origin) over ERbeta (unknown origin).

Molecule `CC/C(Cc1ccccc1)=C(\c1ccccc1)c1ccc(OCCN2CCCC2)cc1` showed an IC50 in the assay on MCF7 [1] of 12.5 µM. The molecule `CC/C(=C(\c1ccccc1)c1ccc(OCCN(C)C)cc1)c1ccccc1` [TAMOXIFEN] came in with a half-inhibitory concentration (IC50) with MCF7 [2] of 2.7 µM. Take `CCCCC(=C(c1ccccc1)c1ccccc1)c1ccc(S(C)(=O)=O)cc1`: the IC50 in [3] was found to be 0.014 µM. Further, the Ratio IC50 in the assay listed under Ovis aries was above 7140. `CN1CCN(CCOc2ccc(C(=C(C#N)c3ccccc3)c3ccc(OCCN4CCN(C)CC4)cc3)cc2)CC1` returned an IC50 on Estrogen receptor [4] above 10 µM. The molecule `CC/C(=C(\c1ccccc1)c1cnn(OCCCN(C)C)c1)c1ccccc1` showed an IC50 in the assay on MCF7 [2] of 3 µM. For `CCC(Cc1ccccc1)=C(c1ccc(O)cc1)c1ccc(OCCN2CCCC2)cc1`, the figures for the concentration for half-maximal inhibition (IC50) at Estrogen receptor [5] and in the assay on MCF7 [7] were 0.02 µM and below 0.25 µM, respectively. In addition, the Ratio IC50 in the assay filed under Homo sapiens [6] is 12; in assay [8] it was 80; in the assay filed under Homo sapiens [9], 900. The molecule `CCc1c(-c2ccccc2)c2cnn(OCCCN(C)C)c2c2ccccc12` gave an IC50 with MCF7 [2] of 1 µM.

On Estrogen receptor [4], `CCN(CC)CCOc1ccc(C(=C(C#N)c2ccccc2)c2ccc(OCCN(CC)CC)cc2)cc1` came in with an IC50 above 10 µM.
